Laboratory results as given in the supplement of paper PMC11061612.

Key:
Lapatinib = compound: CS(=O)(=O)CCNCc1ccc(-c2ccc3ncnc(Nc4ccc(OCc5cccc(F)c5)c(Cl)c4)c3c2)o1 [Lapatinib]; details: max 10 µM
Method in brief: (§1)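 After 24 hours at 37°C and 5% CO2 in 1536-well plates holding 7.5 μl of DMEM/F12 or RPMI with 10% FBS, cancer cell lines were dosed for 72 hours, with final DMSO typically 0.2%. Viability came from CellTiter-Glo 2.0 luminescence, scaled between the means of blank wells and DMSO wells. A non-linear mixed effects model fitted a two-parameter logistic curve to each dose response to give the single-agent IC50.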

AZD8186 = compound: C[C@@H](Nc1cc(F)cc(F)c1)c1cc(C(=O)N(C)C)cc2c(=O)cc(N3CCOCC3)oc12 [AZD8186]; details: max 3 µM
Method in brief: as §1

AZD4320 = compound: CN(CC[C@H](CSC1=CC=CC=C1)NC2=C(C=C(C=C2)S(=O)(=O)NC(=O)C3=CC=C(C=C3)N4CCC(CC4)[C@H](C5=CC=CC=C5C6=CC=C(C=C6)Cl)O)S(=O)(=O)C(F)(F)F)CCO [AZD4320]; details: max 1 µM
Method in brief: as §1

Olaparib = compound: O=C(c1cc(Cc2n[nH]c(=O)c3ccccc23)ccc1F)N1CCN(C(=O)C2CC2)CC1 [Olaparib]; details: max 10 µM
Method in brief: as §1

SN-38 = compound: CCc1c2c(nc3ccc(O)cc13)-c1cc3c(c(=O)n1C2)COC(=O)[C@]3(O)CC [SN-38]; details: max 0.3 µM
Method in brief: as §1

SG3199 = compound: CC1=CN2[C@@H](C1)C=NC3=CC(=C(C=C3C2=O)OC)OCCCCCOC4=C(C=C5C(=C4)N=C[C@@H]6CC(=CN6C5=O)C)OC [SG3199]; details: max 0.001 µM
Method in brief: as §1

Taselisib = compound: Cc1nc(-c2cn3c(n2)-c2ccc(-c4cnn(C(C)(C)C(N)=O)c4)cc2OCC3)n(C(C)C)n1 [Taselisib]; details: max 10 µM
Method in brief: as §1

Trametinib = compound: CC(=O)Nc1cccc(-n2c(=O)n(C3CC3)c(=O)c3c(Nc4ccc(I)cc4F)n(C)c(=O)c(C)c32)c1 [Trametinib]; details: max 1 µM
Method in brief: as §1

Capivasertib = compound: C1CN(CCC1(C(=O)N[C@@H](CCO)C2=CC=C(C=C2)Cl)N)C3=NC=NC4=C3C=CN4 [Capivasertib]; details: max 10 µM
Method in brief: as §1

Savolitinib = compound: C[C@@H](c1ccc2nccn2c1)n1nnc2ncc(-c3cnn(C)c3)nc21 [Savolitinib]; details: max 1 µM
Method in brief: as §1

Gefitinib = compound: COc1cc2ncnc(Nc3ccc(F)c(Cl)c3)c2cc1OCCCN1CCOCC1 [Gefitinib]; details: max 10 µM
Method in brief: as §1

Selumetinib = compound: Cn1cnc2c(F)c(Nc3ccc(Br)cc3Cl)c(C(=O)NOCCO)cc21 [Selumetinib]; details: max 10 µM
Method in brief: as §1

AZD0156 = compound: CN(C)CCCOc1ccc(-c2ccc3ncc4c(c3c2)n(C2CCOCC2)c(=O)n4C)cn1 [AZD0156]; details: max 3 µM
Method in brief: as §1

Doxorubicin = compound: COc1cccc2c1C(=O)c1c(O)c3c(c(O)c1C2=O)C[C@@](O)(C(=O)CO)C[C@@H]3O[C@H]1C[C@H](N)[C@H](O)[C@H](C)O1 [Doxorubicin]; details: max 1 µM
Method in brief: as §1

Dasatinib = compound: CC1=C(C(=CC=C1)Cl)NC(=O)C2=CN=C(S2)NC3=CC(=NC(=N3)C)N4CCN(CC4)CCO [Dasatinib]; details: max 2 µM
Method in brief: as §1

AZD1390 = compound: CC(C)n1c(=O)n(C)c2cnc3cc(F)c(-c4ccc(OCCCN5CCCCC5)nc4)cc3c21 [AZD1390]; details: max 0.3 µM
Method in brief: as §1

Palbociclib = compound: CC(=O)c1c(C)c2cnc(Nc3ccc(N4CCNCC4)cn3)nc2n(C2CCCC2)c1=O [Palbociclib]; details: max 10 µM
Method in brief: as §1

Prexasertib = compound: COc1cccc(OCCCN)c1-c1cc(Nc2cnc(C#N)cn2)n[nH]1 [Prexasertib]; details: max 1 µM
Method in brief: as §1

Crizotinib = compound: C[C@@H](Oc1cc(-c2cnn(C3CCNCC3)c2)cnc1N)c1c(Cl)ccc(F)c1Cl [Crizotinib]; details: max 10 µM
Method in brief: as §1

Venetoclax = compound: CC1(C)CCC(CN2CCN(c3ccc(C(=O)NS(=O)(=O)c4ccc(NCC5CCOCC5)c([N+](=O)[O-])c4)c(Oc4cnc5[nH]ccc5c4)c3)CC2)=C(c2ccc(Cl)cc2)C1 [Venetoclax]; details: max 1 µM
Method in brief: as §1

AZD2811 = compound: CCN(CCO)CCCOc1ccc2c(Nc3cc(CC(=O)Nc4cccc(F)c4)[nH]n3)ncnc2c1 [AZD2811]; details: max 1 µM
Method in brief: as §1

AZD6738 = compound: C[C@@H]1COCCN1C2=NC(=NC(=C2)C3(CC3)[S@](=N)(=O)C)C4=C5C=CNC5=NC=C4 [AZD6738]; details: max 10 µM
Method in brief: as §1

AZD5991 = compound: Cc1c2c(nn1C)CSCc1cc(n(C)n1)CSc1cc(c3ccccc3c1)OCCCc1c(C(=O)O)n(C)c3c-2c(Cl)ccc13 [AZD5991]; details: max 1 µM
Method in brief: as §1

AZD1775 = compound: C=CCn1c(=O)c2cnc(Nc3ccc(N4CCN(C)CC4)cc3)nc2n1-c1cccc(C(C)(C)O)n1 [AZD1775]; details: max 3 µM
Method in brief: as §1

AZD5153 = compound: COc1nnc2ccc(N3CCC(c4ccc(OCCN5CCN(C)C(=O)[C@H]5C)cc4)CC3)nn12 [AZD5153]; details: max 1 µM
Method in brief: as §1

Alisertib = compound: COc1cc(Nc2ncc3c(n2)-c2ccc(Cl)cc2C(c2c(F)cccc2OC)=NC3)ccc1C(=O)O [Alisertib]; details: max 10 µM
Method in brief: as §1

AZD7648 = compound: Cc1cc2ncnn2cc1Nc1ncc2c(n1)n(C1CCOCC1)c(=O)n2C [AZD7648]; details: max 10 µM
Method in brief: as §1

Cell Line | IC50, cell viability 72 h (Lapatinib) [µM] | IC50, cell viability 72 h (AZD8186) [µM] | IC50, cell viability 72 h (AZD4320) [µM] | IC50, cell viability 72 h (Olaparib) [µM] | IC50, cell viability 72 h (SN-38) [µM] | IC50, cell viability 72 h (SG3199) [µM] | IC50, cell viability 72 h (Taselisib) [µM] | IC50, cell viability 72 h (Trametinib) [µM] | IC50, cell viability 72 h (Capivasertib) [µM] | IC50, cell viability 72 h (Savolitinib) [µM] | IC50, cell viability 72 h (Gefitinib) [µM] | IC50, cell viability 72 h (Selumetinib) [µM] | IC50, cell viability 72 h (AZD0156) [µM] | IC50, cell viability 72 h (Doxorubicin) [µM] | IC50, cell viability 72 h (Dasatinib) [µM] | IC50, cell viability 72 h (AZD1390) [µM] | IC50, cell viability 72 h (Palbociclib) [µM] | IC50, cell viability 72 h (Prexasertib) [µM] | IC50, cell viability 72 h (Crizotinib) [µM] | IC50, cell viability 72 h (Venetoclax) [µM] | IC50, cell viability 72 h (AZD2811) [µM] | IC50, cell viability 72 h (AZD6738) [µM] | IC50, cell viability 72 h (AZD5991) [µM] | IC50, cell viability 72 h (AZD1775) [µM] | IC50, cell viability 72 h (AZD5153) [µM] | IC50, cell viability 72 h (Alisertib) [µM] | IC50, cell viability 72 h (AZD7648) [µM]
JVM-2 (B-Cell Non-Hodgkin's Lymphoma) | 9.87 | 0.976 | > 1 | > 10 | 0.00386 | > 0.001 | 0.307 | > 1 | 1.28 | > 1 | > 10 | > 10 | > 3 | 0.0481 | 0.0446 | > 0.3 | 1.54 | 0.0108 | 5.65 | > 1 | 0.238 | 3.23 | > 1 | 0.0983 | 0.0531 | 0.203 | > 10
Jurkat (T-Lymphoblastic Leukemia) | > 10 | > 3 | 0.482 | > 10 | 0.00797 | > 0.001 | 5.81 | > 1 | 2.61 | > 1 | > 10 | > 10 | > 3 | 0.415 | > 2 | > 0.3 | 7.66 | 0.0258 | > 10 | > 1 | > 1 | 3.55 | 0.292 | 1.74 | 0.21 | 8.51 | > 10
KYSE-140 (Esophageal Squamous Cell Carcinoma) | 7.25 | > 3 | > 1 | > 10 | > 0.3 | > 0.001 | 1.13 | 0.858 | 1.66 | > 1 | 1.93 | > 10 | > 3 | > 1 | 1.23 | > 0.3 | > 10 | 0.012 | > 10 | > 1 | > 1 | 0.66 | > 1 | 0.423 | 0.827 | > 10 | > 10
NCI-H716 (Colorectal Carcinoma) | > 10 | > 3 | > 1 | > 10 | > 0.3 | > 0.001 | > 10 | > 1 | > 10 | > 1 | > 10 | > 10 | > 3 | > 1 | > 2 | > 0.3 | > 10 | 0.181 | > 10 | > 1 | > 1 | > 10 | > 1 | 1.6 | 0.775 | 2.23 | > 10
NCI-H2228 (Lung Adenocarcinoma) | > 10 | > 3 | > 1 | > 10 | 0.0824 | > 0.001 | 2.01 | 0.955 | > 10 | > 1 | > 10 | > 10 | > 3 | 0.557 | > 2 | > 0.3 | > 10 | 0.182 | 5.48 | > 1 | > 1 | > 10 | > 1 | 2.87 | > 1 | 8.94 | > 10
OACp4C (Esophageal Adenocarcinoma) | 2.12 | > 3 | 0.117 | > 10 | 0.104 | > 0.001 | 0.0931 | 0.0568 | 1.63 | > 1 | > 10 | 5.81 | > 3 | 0.323 | 0.18 | > 0.3 | > 10 | 0.116 | 3.56 | > 1 | 0.618 | 3.03 | > 1 | 0.342 | 0.695 | 1.9 | > 10
RH-41 (Rhabdomyosarcoma) | > 10 | > 3 | 0.087 | > 10 | 0.057 | > 0.001 | 0.0931 | > 1 | 0.314 | > 1 | > 10 | > 10 | > 3 | 0.476 | > 2 | > 0.3 | > 10 | 0.0231 | 1.98 | > 1 | > 1 | 4.12 | 0.0885 | 0.729 | 0.0968 | 3.43 | > 10
huH-1 (Hepatocellular Carcinoma) | > 10 | > 3 | > 1 | > 10 | 0.068 | > 0.001 | > 10 | > 1 | > 10 | > 1 | > 10 | > 10 | > 3 | > 1 | > 2 | > 0.3 | > 10 | 0.093 | > 10 | > 1 | > 1 | 5.64 | > 1 | 2.52 | > 1 | > 10 | > 10
